The experiment deals with S1P1 (Homo sapiens (Human), UniProt P21453). Description: 35S-GTPγS binding, membranes from CHO cells expressing S1P1. The settings on record: CHO cell membranes. The format is biochemical. The method, then:
Cells were suspended in 50 mM TRIS, pH 7.4, 2 mM EDTA, 250 mM Sucrose (buffer A) and 1× Complete protease inhibitor cocktail (Roche), and disrupted at 4° C. by N2 decompression using a cell disruption bomb (Parr Instrument). Following centrifugation at 1000 RPM for 10 min at 4° C., the supernatant was suspended in buffer A and centrifuged again at 19000 RPM for 60 min at 4° C. The pellet was then suspended in 10 mM HEPES, pH 7.4, 1 mM EDTA, 250 mM Sucrose (Buffer B), and 1× Complete EDTA-free protease inhibitor cocktail and homogenized using a potter. Membranes were flash frozen in liquid N2 and stored at −80° C. [33P]sphingosine 1-phosphate (3000 Ci/mmol; American Radiolabeled Chemicals, Inc.) was added to test compounds in DMSO. […] Specific binding was calculated by subtracting remaining radioactivity in the presence of 1000-fold excess of unlabeled SIP. Binding data were analyzed using the GraphPad Prism program.
After 60 min incubation at 30° C. on a shaker, plates were centrifuged for 10 min at 2000 RPM. […] Triplicate samples were averaged and expressed as % response relative to S1P activation in absence of compound (n=2).

Sequence of S1P1 (P21453 whole entry, species assumed): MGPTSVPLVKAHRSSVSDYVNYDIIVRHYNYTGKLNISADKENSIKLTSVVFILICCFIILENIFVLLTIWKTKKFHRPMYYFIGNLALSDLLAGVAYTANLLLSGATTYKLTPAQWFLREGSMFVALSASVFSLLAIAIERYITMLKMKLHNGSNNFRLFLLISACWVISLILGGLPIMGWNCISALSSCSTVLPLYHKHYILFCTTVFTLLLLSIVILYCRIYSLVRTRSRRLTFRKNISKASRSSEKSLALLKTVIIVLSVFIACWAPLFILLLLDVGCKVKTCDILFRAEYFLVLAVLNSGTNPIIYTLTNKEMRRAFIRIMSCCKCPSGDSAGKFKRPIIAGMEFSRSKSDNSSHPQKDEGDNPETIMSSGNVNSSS

`Fc1ccc(F)c(-c2noc(-c3cnn(-c4ccccc4F)c3-c3ccccc3)n2)c1` [Example 2, 3-(2,5-difluorophenyl)-5-[1-(2-fluorophenyl)-5-phenyl-1H-pyrazol-4-yl]-1,2,4-oxadiazole] showed an EC50 of 24 nM.

As for `COc1ccccc1-n1ncc(-c2nc(-c3cc(F)ccc3F)no2)c1-c1ccccc1` [Example 4, 3-(2,5-difluorophenyl)-5-[1-(2-methoxyphenyl)-5-phenyl-1H-pyrazol-4-yl]-1,2,4-oxadiazole], the half-maximal effective concentration (EC50) came out at 284 nM.

Regarding `CC(C)Cn1cc(-c2nc(-c3cc(F)ccc3F)no2)c(-c2ccccc2)n1` [Example 7, 3-(2,5-difluorophenyl)-5-(1-isobutyl-3-phenyl-1H-pyrazol-4-yl)-1,2,4-oxadiazole], the 50% effective concentration (EC50) stood at 288 nM.

For `CC(C)n1ncc(-c2nc(-c3cc(F)ccc3F)no2)c1-c1ccccc1` [Example 10, 3-(2,5-difluorophenyl)-5-(1-isopropyl-5-phenyl-1H-pyrazol-4-yl)-1,2,4-oxadiazole], the midpoint of the response, the EC50, lay at 172 nM.

Take `CCCn1ncc(-c2nc(-c3cc(F)ccc3F)no2)c1-c1ccccc1` [Example 14, 3-(2,5-difluorophenyl)-5-(5-phenyl-1-propyl-1H-pyrazol-4-yl)-1,2,4-oxadiazole]: the 50% effective concentration (EC50) is 201 nM.

In the case of `Cc1c(-c2nc(-c3cc(F)ccc3F)no2)cnn1-c1ccccc1` [Example 15, 3-(2,5-difluorophenyl)-5-(5-methyl-1-phenyl-1H-pyrazol-4-yl)-1,2,4-oxadiazole], the concentration for a half-maximal effect (EC50) is 192 nM.

The molecule `Cn1cc(-c2nc(-c3cc(F)ccc3F)no2)c(C(C)(C)C)n1` [Example 16, 5-(3-tert-butyl-1-methyl-1H-pyrazol-4-yl)-3-(2,5-difluorophenyl)-1,2,4-oxadiazole] returned an EC50 of 901 nM.

`COCc1c(-c2nc(-c3cc(F)ccc3F)no2)cnn1CC(C)C` [Example 17, 3-(2,5-difluorophenyl)-5-(1-isobutyl-5-(methoxymethyl)-1H-pyrazol-4-yl)-1,2,4-oxadiazole] came in with an EC50 of 648 nM.

Molecule `CCc1c(-c2nc(-c3cc(F)ccc3F)no2)cnn1CC(C)C` [Example 18, 3-(2,5-difluorophenyl)-5-(5-ethyl-1-isobutyl-1H-pyrazol-4-yl)-1,2,4-oxadiazole] returned an EC50 of 776 nM.

The molecule `CCOC(=O)Cn1ncc(-c2nc(-c3cc(F)ccc3F)no2)c1-c1ccncc1` [Example 20, ethyl {4-[3-(2,5-difluorophenyl)-1,2,4-oxadiazol-5-yl]-5-pyridin-4-yl-1H-pyrazol-1-yl}acetate] came in with an EC50 of 172 nM.

As for `CCCc1c(-c2nc(-c3cc(F)ccc3F)no2)cnn1-c1ccccc1` [Example 21, 3-(2,5-difluorophenyl)-5-(1-phenyl-5-propyl-1H-pyrazol-4-yl)-1,2,4-oxadiazole], the response was half-maximal at 81 nM (EC50).

`CCCc1c(-c2nc(-c3cccc(S(C)(=O)=O)c3)no2)cnn1-c1ccccc1` [Example 22] gave an EC50 of 370 nM.

In the case of `Fc1ccc(F)c(-c2noc(-c3cnn(CC(F)(F)F)c3-c3ccncc3)n2)c1` [Example 24, 3-(2,5-difluorophenyl)-5-(5-(pyridin-4-yl)-1-(2,2,2-trifluoroethyl)-1H-pyrazol-4-yl)-1,2,4-oxadiazole], the EC50 was determined as 292 nM.

For `Fc1ccc(F)c(-c2noc(-c3cnn(Cc4ccccc4)c3-c3ccncc3)n2)c1` [Example 25, 4-{1-benzyl-4-[3-(2,5-difluorophenyl)-1,2,4-oxadiazol-5-yl]-1H-pyrazol-5-yl}pyridine], the response was half-maximal at 148 nM (EC50).

`CS(=O)(=O)c1cccc(-c2noc(-c3cnn(C4CCCCC4)c3-c3ccncc3)n2)c1` [Example 26, 4-(1-cyclohexyl-4-{3-[3-(methylsulfonyl)phenyl]-1,2,4-oxadiazol-5-yl}-1H-pyrazol-5-yl)pyridine] displayed an EC50 of 29 nM.

In turn, `COCc1c(-c2nc(-c3cc(F)ccc3F)no2)cnn1C1CCCCC1` [Example 27, 5-[1-cyclohexyl-5-(methoxymethyl)-1H-pyrazol-4-yl]-3-(2,5-difluorophenyl)-1,2,4-oxadiazole] yielded a 50% effective concentration (EC50) of 27 nM.

The values are drawn from patent publication US8802663B2, “Pyrazole oxadiazole derivatives as S1P1 agonists” (Merck Serono SA, priority 2009, dated 2014).
